In US20030207924A1, “Compounds that modulate PPAR activity and methods of preparation” (priority 2002, published 2003):
pEC50: −log10 of the molar value.

Experiments:
hPPARα chimeric receptor = biological target: T1, hPPARα chimeric receptor (Homo sapiens, UniProt Q07869); test: Transient transfection assay in HepG2 cells, Gal4-hPPARα chimeric receptor, luciferase reporter (Test A); format: cell-based; settings: HepG2 cells, hPPARα chimeric receptor, luciferase reporter, 24 hours; read-out: EC50-α (Hep G2-hAlpha EC50)
T1 construct: "expression plasmids encoding hPPARα, hPPARβ or mPPARγ chimeric receptors"
T1 sequence (Q07869 200-468 limits assumed): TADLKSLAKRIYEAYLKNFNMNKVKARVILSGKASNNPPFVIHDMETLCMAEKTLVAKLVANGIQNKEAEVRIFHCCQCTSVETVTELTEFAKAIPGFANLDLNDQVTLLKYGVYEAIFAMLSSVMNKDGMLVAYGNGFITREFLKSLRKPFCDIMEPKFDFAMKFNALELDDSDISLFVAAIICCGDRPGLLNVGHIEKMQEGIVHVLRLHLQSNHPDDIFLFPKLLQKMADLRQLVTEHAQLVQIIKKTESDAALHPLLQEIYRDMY
Protocol: (§1) 1. Test A. Transient Transfections Assay Using the HepG2 Hepatoma Cell Line.
HepG2 cells were transiently transfected with an expression plasmids encoding hPPARα, hPPARβ or mPPARγ chimeric receptors and a reporter containing the yeast upstream activating sequence (UAS) upstream of the viral E1B promoter controlling a luciferase reporter gene. In addition, the plasmid pRSVβ-gal was used to control for transfection efficiency. HepG2 cells were grown in DMEM supplemented with 10% FBS and […] non-essential amino acid. On the first day, cells were split into 100 mm dishes at 2.5×10^6/dish and incubated overnight at 37° C./5% CO2. On the second day the cells were transiently transfected with plasmid DNA encoding a chimeric receptor, the luciferase reporter gene; and β-gal. For each 100 mm dish, 15 μg of lucifease reporter (PG5E1b) DNA, 15 μg of Gal4-PPAR chimeric receptor DNA, and 1.5 μg of β-gal plasmid DNA were mixed with 1.4 ml of opti-MEM in the tube. 28 μl of LipoFectamine-2000 reagent was added to 1.4 ml of opti-MEM in the tube, and incubate for 5 min at RT. The diluted Lipofectamine-2000 reagent was combined with the DNA mixture, and incubate for 20 min at RT. After fresh medium was added to each 100 mm dish of cells, 2.8 ml of Lipofectamine2000-DNA mixture was added dropwise to the 100 mm dish containing 14 ml of medium, and incubate 37° C. overnight. On day three cells were trypsinized off the 100 mm dishes and re-plated on 96 well plates. Cells were plated at 2.5×10^4 cells per well in 150 μl of media and 50 μl of compound diluted by media was added. The test compounds added were in the range from 50 μM to 50 pM. After addition of compounds, the plates were incubated at 37° C. for 24 hours. Subsequently cells were washed with once with 100 μl of PBS, lysed, and processed for measuring luciferase and β-gal activity using Dual-Light luciferase kit from Tropix®, according to the manufacturer's recommendations, on an EG&G Bethold MicroLumat LB96P luminometer. EC50 values were obtained using the GraphPad Prism™ program. […] Accordingly, the compounds of the present invention should find considerable therapeutic applications for hypercholesterolemia and hyperlipidemia.

hPPARβ chimeric receptor = biological target: T2, hPPARβ chimeric receptor (Homo sapiens, UniProt Q03181); test: Transient transfection assay in HepG2 cells, Gal4-hPPARβ chimeric receptor, luciferase reporter (Test A); format: cell-based
T2 construct: "expression plasmids encoding hPPARα, hPPARβ or mPPARγ chimeric receptors"
T2 sequence (Q03181 171-441 limits assumed): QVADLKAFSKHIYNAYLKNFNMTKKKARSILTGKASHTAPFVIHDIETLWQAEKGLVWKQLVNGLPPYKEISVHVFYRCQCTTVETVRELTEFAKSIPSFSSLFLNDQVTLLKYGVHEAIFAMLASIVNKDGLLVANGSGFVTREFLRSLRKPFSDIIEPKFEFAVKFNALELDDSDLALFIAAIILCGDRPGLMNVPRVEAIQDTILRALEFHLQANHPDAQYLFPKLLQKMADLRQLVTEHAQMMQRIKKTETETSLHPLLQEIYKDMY
Protocol: as §1
HepG2 cells were transiently transfected with an expression plasmids encoding hPPARα, hPPARβ or mPPARγ chimeric receptors and a reporter containing the yeast upstream activating sequence (UAS) upstream of the viral E1B promoter controlling a luciferase reporter gene. In addition, the plasmid pRSVβ-gal was used to control for transfection efficiency. HepG2 cells were grown in DMEM supplemented with 10% FBS and […] non-essential amino acid. On the first day, cells were split into 100 mm dishes at 2.5×10^6/dish and incubated overnight at 37° C./5% CO2. On the second day the cells were transiently transfected with plasmid DNA encoding a chimeric receptor, the luciferase reporter gene; and β-gal. For each 100 mm dish, 15 μg of lucifease reporter (PG5E1b) DNA, 15 μg of Gal4-PPAR chimeric receptor DNA, and 1.5 μg of β-gal plasmid DNA were mixed with 1.4 ml of opti-MEM in the tube. 28 μl of LipoFectamine-2000 reagent was added to 1.4 ml of opti-MEM in the tube, and incubate for 5 min at RT. The diluted Lipofectamine-2000 reagent was combined with the DNA mixture, and incubate for 20 min at RT. After fresh medium was added to each 100 mm dish of cells, 2.8 ml of Lipofectamine2000-DNA mixture was added dropwise to the 100 mm dish containing 14 ml of medium, and incubate 37° C. overnight. On day three cells were trypsinized off the 100 mm dishes and re-plated on 96 well plates. Cells were plated at 2.5×10^4 cells per well in 150 μl of media and 50 μl of compound diluted by media was added. The test compounds added were in the range from 50 μM to 50 pM. After addition of compounds, the plates were incubated at 37° C. for 24 hours. Subsequently cells were washed with once with 100 μl of PBS, lysed, and processed for measuring luciferase and β-gal activity using Dual-Light luciferase kit from Tropix®, according to the manufacturer's recommendations, on an EG&G Bethold MicroLumat LB96P luminometer. EC50 values were obtained using the GraphPad Prism™ program.

SMILES	pEC50 (hPPARα chimeric receptor)	pEC50 (hPPARβ chimeric receptor)
Cc1cc(OCC(=O)O)c(C(C)C)cc1SCc1sc(-c2ccc(C(F)(F)F)cc2)nc1C [Example 9, {2-Isopropyl-5-methyl-4-[4-methyl-2-(4-trifluoromethyl-phenyl)-thiazol-5-ylmethylsulfanyl]-phenoxy}-acetic acid]	5.24	6.05
COc1cc(C(C)(C)C(=O)O)ccc1SCc1sc(-c2ccc(C(F)(F)F)cc2)nc1C [Example 17, 2-{3-Methoxy-4-[4-methyl-2-(4-trifluoromethyl-phenyl)-thiazol-5-ylmethylsulfanyl]-phenyl}-2-methyl-propionic acid]	8.26	7.70
Cc1nc(-c2ccc(C(F)(F)F)cc2)sc1CSc1ccc(C2(C(=O)O)CCCC2)cc1 [Example 14, 1-{4-[4-Methyl-2-(4-trifluoromethyl-phenyl)-thiazol-5-ylmethylsulfanyl]-phenyl}-cyclopentanecarboxylic acid]	6.00	5.17

The remaining molecules from weak to strong by pEC50 (hPPARα chimeric receptor), led by results:

pEC50 (hPPARα chimeric receptor)	pEC50 (hPPARβ chimeric receptor)	SMILES
5.87	6.33	Cc1cc(OCC(=O)O)cc(C)c1SCc1sc(-c2ccc(C(F)(F)F)cc2)nc1C [Example 7, {3,5-Dimethyl-4-[4-methyl-2-(4-trifluoromethyl-phenyl)-thiazol-5-ylmethylsulfanyl]-phenoxy}-acetic acid]
5.96	7.32	Cc1nc(-c2ccc(C(F)(F)F)cc2)sc1CSc1ccc(C2(C(=O)O)CC2)cc1 [Example 13, 1-{4-[4-Methyl-2-(4-trifluoromethyl-phenyl)-thiazol-5-ylmethylsulfanyl]-phenyl}-cyclopropanecarboxylic acid]
6.77	10.15	Cc1cc(SCc2sc(-c3ccc(C(F)(F)F)cc3)nc2C)c(F)cc1OCC(=O)O [Example 26, 2-[5-fluoro-2-methyl-4-({4-methyl-2-[4-(trifluoromethyl)phenyl](1,3-thiazol-5-yl)}methylthio)phenoxy]acetic acid]
